Measured values from EP2022493A1, “Composition comprising at least one optically active phthalamide derivative for controlling animal parasites” (Bayer CropScience AG, priority 2007, dated 2009).

Experiments:
[1] = Determination of the logP values by HPLC on reversed-phase column (C 18); type: physicochemical
Protocol: Determination of the logP values:
The lambda max values were determined in the maxima of the chromatographic signals using the UV spectra from 190 nm to 400 nm.

[2] = tested on: Lucilia cuprina larvae; assay: Lucilia cuprina - test (larvae); type: in vivo; details: in Ovis aries, read-out: activity (mortality in %)
Protocol: Solvent: dimethyl sulfoxide
To produce a suitable preparation of active compound, 10 mg of active compound are dissolved in 0.5 ml solvent, and the concentrate is diluted with water to the desired concentration.
Approximately 20 -30 (Lucilia cuprina larvae) are transferred into a test tube containing 1cm^3 of minced horse meat and 0.5 ml aqueous dilution of test compound.
After the specified period of time, mortality in % is determined. 100 % means that all the larvae have been killed; 0 % means that none of the larvae have been killed.

[3] = tested on: Boophilus microplus; assay: Boophilus microplus - test (injection into adult ticks); type: in vivo; details: application rate of 20 µg/animal; injected into the abdomen of adult ticks; seven days
Protocol: Boophilus microplus - test Solvent: dimethylsulfoxide To produce a suitable preparation of active compound, 1 part by weight of active compound is mixed with the stated amount of solvent, and the concentrate is diluted with containing solvent to the desired concentration. Adult ticks (Boophilus microplus) are treated by injected with compound solution of the desired concentration into the abdomen. Ticks are transferred into replica plates and incubated in a climate chamber for seven days. Eggs which are not clearly fertile or infertile are further incubated for another 35 days until larvae hatch from the untreated controls. After the specified period of time, the laying of fertile eggs in % is determined. 100 % means that all eggs have been fertile; 0 % means that none of the eggs have been fertile.

[4] = 0.1% aqueous phosphoric acid/acetonitrile, method [a]: 0.1% aqueous phosphoric acid and acetonitrile at pH 2.3, linear gradient from 10 to 95 % (v/v) acetonitrile, HPLC reversed-phase C 18, 40 °C
[5] = 0.1% aqueous phosphoric acid/acetonitrile, HPLC, reversed-phase C 18, 40 °C, [a] 0.1% aqueous phosphoric acid and acetonitrile at pH 2.3, linear gradient from 10 to 95 % (v/v) acetonitrile
[6] = 0.001 m aqueous nh4hco3/acetonitrile, method [c]: 0.001 molar aqueous NH4HCO3 solution and acetonitrile at pH 7.8, linear gradient from 10 % to 95 % acetonitrile (v/v), HPLC reversed-phase C 18, 40 °C

| chromatographic logP ([1]; 0.001 m aqueous nh4hco3/acetonitrile, HPLC, reversed-phase C 18, 40 °C, [c] 0.001 molar aqueous NH4HCO3 solution and acetonitrile at pH 7.8, linear gradient from 10 % to 95 % acetonitrile (v/v)) | Compound | chromatographic logP [1, 4] | mortality at 100 ppm [2] [%] | activity (laying of fertile eggs in %) [3] [%] | chromatographic logP [1, 5] | chromatographic logP [1, 6] | chromatographic logP ([1]; 0.1% aqueous formic acid/acetonitrile, HPLC, reversed-phase C 18, 40 °C, [b] 0.1% aqueous formic acid and acetonitrile at pH 2.7, linear gradient from 10 % to 95 % (v/v) acetonitrile) |
| --- | --- | --- | --- | --- | --- | --- | --- |
| – | CCSC[C@H](C)NC(=O)c1c(I)cccc1C(=O)Nc1ccc(C(F)(C(F)(F)F)C(F)(F)F)c(F)c1C [Compound 105] | 4.71 | ≥ 80 | ≥ 80 | – | – | – |
| – | CC[S+]([O-])C[C@H](C)NC(=O)c1c(I)cccc1C(=O)Nc1ccc(C(F)(C(F)(F)F)C(F)(F)F)c(F)c1C (stereo partly drawn) [Compound 339] | – | ≥ 80 | ≥ 80 | 2.97 | – | – |
| – | CCS(=O)(=O)C[C@H](C)NC(=O)c1c(Cl)cccc1C(=O)Nc1ccc(C(F)(F)C(F)(F)F)c(Cl)c1C [Compound 347] | – | ≥ 80 | ≥ 80 | 3.14 | – | – |
| – | CSC[C@H](C)NC(=O)c1c(I)cccc1C(=O)Nc1ccc(C(F)(F)C(F)(F)F)c(F)c1C [Compound 146] | 4.04 | ≥ 80 | ≥ 80 | – | – | – |
| – | CCS(=O)(=O)C[C@H](C)NC(=O)c1c(Br)cccc1C(=O)Nc1ccc(C(F)(F)C(F)(F)F)c(Cl)c1C [Compound 138] | 3.19 | ≥ 80 | ≥ 80 | – | – | – |
| – | CSC[C@H](C)NC(=O)c1c(Br)cccc1C(=O)Nc1ccc(C(F)(F)C(F)(F)F)c(F)c1C [Compound 388] | 3.93 | ≥ 80 | ≥ 80 | – | – | – |
| – | Cc1c(NC(=O)c2cccc(Br)c2C(=O)N[C@@H](C)CS(C)(=O)=O)ccc(C(F)(F)C(F)(F)F)c1F [Compound 389] | 2.86 | ≥ 80 | ≥ 80 | – | – | – |
| – | Cc1c(NC(=O)c2cccc(I)c2C(=O)N[C@@H](C)C[S+](C)[O-])ccc(C(F)(C(F)(F)F)C(F)(F)F)c1F (stereo partly drawn) [Compound 331] | – | ≥ 80 | ≥ 80 | 2.78 | – | – |
| – | Cc1c(NC(=O)c2cccc(I)c2C(=O)N[C@@H](C)CS(C)(=O)=O)ccc(C(F)(F)C(F)(F)F)c1Cl [Compound 186] | – | ≥ 80 | – | – | – | – |
| – | CCSC[C@H](C)NC(=O)c1c(I)cccc1C(=O)Nc1ccc(C(F)(C(F)(F)F)C(F)(F)Br)cc1C (stereo partly drawn) [Compound 154] | 4.68 | ≥ 80 | ≥ 80 | – | 4.71 | – |
| – | CSC[C@H](C)NC(=O)c1c(I)cccc1C(=O)Nc1ccc(C(F)(F)C(F)(F)F)c(Cl)c1C [Compound 170] | 4.2 | ≥ 80 | ≥ 80 | – | – | – |
| – | Cc1cc(C(F)(C(F)(F)F)C(F)(F)F)ccc1NC(=O)c1cccc(Br)c1C(=O)N[C@@H](C)CS(C)(=O)=O [Compound 129] | – | ≥ 80 | ≥ 80 | – | – | – |
| – | Cc1cc(C(C(F)(F)F)C(F)(F)F)c(F)cc1NC(=O)c1cccc(Br)c1C(=O)N[C@@H](C)C[S+](C)[O-] (stereo partly drawn) [Compound 422] | 2.58 | ≥ 80 | ≥ 80 | – | 2.51 | – |
| – | CCSC[C@H](C)NC(=O)c1c(Cl)cccc1C(=O)Nc1ccc(C(F)(F)C(F)(F)F)c(F)c1C [Compound 380] | 4.21 | – | – | – | – | – |
| – | CSC[C@H](C)NC(=O)c1c(Cl)cccc1C(=O)Nc1ccc(C(F)(F)C(F)(F)F)c(F)c1C [Compound 355] | – | ≥ 80 | ≥ 80 | – | – | 3.94 |
| – | CCS(=O)(=O)C[C@H](C)NC(=O)c1c(I)cccc1C(=O)Nc1ccc(C(F)(F)C(F)(F)F)c(Cl)c1C [Compound 145] | – | ≥ 80 | – | – | – | – |
| – | CSC[C@H](C)NC(=O)c1c(Br)cccc1C(=O)Nc1ccc(C(F)(C(F)F)C(F)(F)F)cc1Br (stereo partly drawn) [Compound 267] | – | ≥ 80 | ≥ 80 | 3.81 | – | – |
| 3.47 | CCS(=O)(=O)C[C@H](C)NC(=O)c1c(I)cccc1C(=O)Nc1ccc(C(F)(C(F)(F)F)C(F)(F)Br)cc1C (stereo partly drawn) [Compound 194] | – | – | – | 3.49 | – | – |
